US7071162B1, “Combined use of cementum attachment protein and cyclosporin a for improved attachment of dental and orthopedic implants” (priority 1997, dated 2006)

Legend:
[1] = system: periodontal ligament cells; test: Attachment and spread of periodontal ligament cells; format: cell-based; details: for attachment and spread of cells from the periodontal ligament: compared with gingival fibroblasts
Text: Cementum attachment protein (CAP) is a protein of molecular mass approximately 56 kDa present in cementum and specifically expressed by mineralized tissue-forming cells of the periodontium. […] The protein has sequences containing Gly-X-Y repeats typical of a collagen helix. SEQ ID NOS 1-5 are fragments of CAP. One 17-amino-acid peptide, SEQ ID NO 2, has 82% homology with a type XII collagen domain. […] Although another 19-amino-acid-long peptide (SEQ ID NO 3) has 95% homology to bovine al (I) collagen, two other peptides, SEQ ID NOS 4 and 5, are only 79% and 68% homologous.

periodontal cells = details: CAP-coated surfaces; Pitaru et al. 1995; cited from earlier work

Substance	capacity to promote attachment of periodontal cells after bacterial collagenase ([1]; bacterial collagenase digestion)	capacity to promote attachment of periodontal cells after chondroitinase ABC digestion ([1]; chondroitinase ABC digestion)	attachment and spread of cells from the periodontal ligament [1]	migration and attachment of periodontal cells versus gingival fibroblasts (periodontal cells)
Cementum attachment protein [CAP]	eliminate the capacity of CAP to promote attachment of periodontal cells	had no effect	more efficiently than that of gingival fibroblasts	migrate in response to and attach better to CAP-coated surfaces than do gingival fibroblasts
type XIl collagen: collagen type with a domain 82% homologous to SEQ ID NO 2 of CAP [reference compound]	–	–	does not promote the attachment of periodontal ligament cells	–
